We go through 16 molecules from US20250041429A1, “COMPOUND HAVING BTK PROTEIN DEGRADATION ACTIVITY, AND MEDICAL USES THEREOF” (UBIX THERAPEUTICS, INC., priority 2021, published 2025).

The experiment deals with T1, BTK protein (Homo sapiens, UniProt Q06187).
T1 construct: endogenous in cells; host or cells: TMD-8 cells
Description: Measurement of BTK protein degradation ability in TMD-8 cells (Western blotting). The class given is cell-based. The settings on record: harvested after 24 hours; for BTK degradation (%) 1 nM: compound 1 nM; for BTK degradation (%) 10 nM: compound 10 nM; for BTK degradation (%) 100 nM: compound 100 nM. Put shortly:
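BTK levels were measured by immunoblotting of equal-protein RIPA lysates, normalized to GAPDH or β-actin, with chemiluminescent or infrared detection. Lysates came from TMD-8 cells exposed to compound for 24 h at final concentrations of 0.1, 1, 10 μM or 0.0001–0.1 μM, against a DMSO control.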

T1 sequence (Q06187 whole entry): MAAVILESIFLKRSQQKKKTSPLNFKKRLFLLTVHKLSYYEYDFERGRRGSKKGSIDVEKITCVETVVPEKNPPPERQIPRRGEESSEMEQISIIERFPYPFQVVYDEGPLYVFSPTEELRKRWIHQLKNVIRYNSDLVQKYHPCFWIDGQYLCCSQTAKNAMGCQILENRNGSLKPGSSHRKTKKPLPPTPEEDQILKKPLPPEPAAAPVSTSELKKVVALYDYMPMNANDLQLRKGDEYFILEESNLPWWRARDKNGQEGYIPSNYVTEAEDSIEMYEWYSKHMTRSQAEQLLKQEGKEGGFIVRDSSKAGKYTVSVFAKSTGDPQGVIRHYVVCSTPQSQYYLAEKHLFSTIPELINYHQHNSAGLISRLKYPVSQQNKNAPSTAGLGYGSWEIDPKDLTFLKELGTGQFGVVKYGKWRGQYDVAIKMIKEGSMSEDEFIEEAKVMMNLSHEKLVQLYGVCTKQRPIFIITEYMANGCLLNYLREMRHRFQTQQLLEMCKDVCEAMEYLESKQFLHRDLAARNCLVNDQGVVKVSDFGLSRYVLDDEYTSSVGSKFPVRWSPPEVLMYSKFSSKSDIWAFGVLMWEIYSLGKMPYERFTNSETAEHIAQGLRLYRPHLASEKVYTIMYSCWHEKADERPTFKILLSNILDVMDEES

`Cc1cc(-c2ccnc(Nc3ccc(N4CCN(CC5CN(C(=O)c6cccc(NC7CCC(=O)NC7=O)c6)C5)CC4)cc3)n2)ccc1CNC(=O)c1cnn(C(C)(C)C)c1` (stereo not drawn) [Example 96, 1-(tert-butyl)-N-(4-(2-((4-(4-((1-(3-((2,6-dioxopiperidin-3-yl)amino)benzoyl)azetidin-3-yl)methyl)piperazin-1-yl)phenyl)amino)pyrimidin-4-yl)-2-methylbenzyl)-1H-pyrazole-4-carboxamide]: the “BTK degradation (%) 1 nM” value worked out at 70.0%, the “BTK degradation (%) 10 nM” value came to 95.5% and the “BTK degradation (%) 100 nM” value was determined as 98.0%.
Take `Cc1cc(-c2ccnc(Nc3ccc(N4CCN(CC5CCN(C(=O)c6cccc(NC7CCC(=O)NC7=O)c6)CC5)CC4)cc3)n2)ccc1CNC(=O)c1cn(C(C)(C)C)nn1` (stereo not drawn) [Example 97]: the “BTK degradation (%) 1 nM” value worked out at 67.5%, the “BTK degradation (%) 10 nM” value is reported as 94.0% and the “BTK degradation (%) 100 nM” value came out at 98.5%.
The corresponding values for `Cc1cc(-c2ccnc(Nc3ccc(N4CCN(CC5CN(C(=O)c6cccc(NC7CCC(=O)NC7=O)c6)C5)CC4)cc3)n2)ccc1CNC(=O)c1cn(C(C)(C)C)nn1` (stereo not drawn) [Example 98, 1-(tert-butyl)-N-(4-(2-((4-(4-((1-(3-((2,6-dioxopiperidin-3-yl)amino)benzoyl)azetidin-3-yl)methyl)piperazin-1-yl)phenyl)amino)pyrimidin-4-yl)-2-methylbenzyl)-1H-1,2,3-triazole-4-carboxamide] are 71.0%, 95.5% and 98.5%.
Take `Cc1cc(-c2ccnc(Nc3ccc(C4CCN(CC5CCN(C(=O)c6cccc(NC7CCC(=O)NC7=O)c6)CC5)CC4)cc3)n2)ccc1CNC(=O)N1CC(OC(C)C)C1` (stereo not drawn) [Example 99, N-(4-(2-((4-(1-((1-(3-((2,6-dioxopiperidin-3-yl)amino)benzoyl)piperidin-4-yl)methyl)piperidin-4-yl)phenyl)amino)pyrimidin-4-yl)-2-methylbenzyl)-3-isopropoxyazetidine-1-carboxamide]: the “BTK degradation (%) 1 nM” value worked out at 46.5%, the “BTK degradation (%) 10 nM” value amounted to 92.0% and the “BTK degradation (%) 100 nM” value is on record as 98.5%.
With `Cc1cc(-c2ccnc(Nc3ccc(C4CCN(CC5CN(C(=O)c6cccc(NC7CCC(=O)NC7=O)c6)C5)CC4)cc3)n2)ccc1CNC(=O)N1CC(OC(C)C)C1` (stereo not drawn) [Example 100, N-(4-(2-((4-(1-((1-(3-((2,6-dioxopiperidin-3-yl)amino)benzoyl)azetidin-3-yl)methyl)piperidin-4-yl)phenyl)amino)pyrimidin-4-yl)-2-methylbenzyl)-3-isopropoxyazetidine-1-carboxamide], the “BTK degradation (%) 1 nM” value came out at 40.5%, the “BTK degradation (%) 10 nM” value amounted to 91.0% and the “BTK degradation (%) 100 nM” value was found to be 98.0%.
The corresponding values for `Cc1cc(-c2ccnc(Nc3ccc(C4CN(CC5CCN(C(=O)c6cccc(NC7CCC(=O)NC7=O)c6)CC5)C4)cc3)n2)ccc1CNC(=O)N1CC(OC(C)C)C1` (stereo not drawn) [Example 101, N-(4-(2-((4-(1-((1-(3-((2,6-dioxopiperidin-3-yl)amino)benzoyl)piperidin-4-yl)methyl)azetidin-3-yl)phenyl)amino)pyrimidin-4-yl)-2-methylbenzyl)-3-isopropoxyazetidine-1-carboxamide] are 50.5%, 98.0% and 100.0%.
As for `Cc1cc(-c2ccnc(Nc3ccc(N4CCN(CC5CCN(C(=O)c6cccc(OC7CCC(=O)NC7=O)c6)CC5)CC4)cc3)n2)ccc1CNC(=O)N1CC(OC(C)C)C1` (stereo not drawn) [Example 102, N-(4-(2-((4-(4-((1-(3-((2,6-dioxopiperidin-3-yl)oxy)benzoyl)piperidin-4-yl)methyl)piperazin-1-yl)phenyl)amino)pyrimidin-4-yl)-2-methylbenzyl)-3-isopropoxyazetidine-1-carboxamide], the “BTK degradation (%) 1 nM” value came to 19.0%, the “BTK degradation (%) 10 nM” value stood at 82.5% and the “BTK degradation (%) 100 nM” value is listed as 94.0%.
As to `Cc1cc(-c2ccnc(Nc3ccc(N4CCN(C5CCN(C(=O)c6cccc(NC7CCC(=O)NC7=O)c6)CC5)CC4)cc3)n2)ccc1CNC(=O)N1CC(OC(C)C)C1` (stereo not drawn) [Example 103, N-(4-(2-((4-(4-(1-(3-((2,6-dioxopiperidin-3-yl)amino)benzoyl)piperidin-4-yl)piperazin-1-yl)phenyl)amino)pyrimidin-4-yl)-2-methylbenzyl)-3-isopropoxyazetidine-1-carboxamide], the “BTK degradation (%) 1 nM” value is given as −12.5%, the “BTK degradation (%) 10 nM” value came to 69.0% and the “BTK degradation (%) 100 nM” value was 97.0%.
The corresponding values for `Cc1cc(-c2ccnc(Nc3ccc(C4CCN(C5CCN(C(=O)c6cccc(NC7CCC(=O)NC7=O)c6)CC5)CC4)cc3)n2)ccc1CNC(=O)N1CC(OC(C)C)C1` (stereo not drawn) [Example 104, N-(4-(2-((4-(1′-(3-((2,6-dioxopiperidin-3-yl)amino)benzoyl)-[1,4′-bipiperidin]-4-yl)phenyl)amino)pyrimidin-4-yl)-2-methylbenzyl)-3-isopropoxyazetidine-1-carboxamide] are −9.0%, 39.0% and 95.5%.
Take `Cc1cc(-c2ccnc(Nc3ccc(N4CCN(CC5CCN(CC(=O)Nc6cccc(NC7CCC(=O)NC7=O)c6)CC5)CC4)cc3)n2)ccc1CNC(=O)N1CC(OC(C)C)C1` (stereo not drawn) [Example 105, N-(4-(2-((4-(4-((1-(2-((3-((2,6-dioxopiperidin-3-yl)amino)phenyl)amino)-2-oxoethyl)piperidin-4-yl)methyl)piperazin-1-yl)phenyl)amino)pyrimidin-4-yl)-2-methylbenzyl)-3-isopropoxyazetidine-1-carboxamide]: the “BTK degradation (%) 1 nM” value is listed as 35%, the “BTK degradation (%) 10 nM” value is recorded as 91.5% and the “BTK degradation (%) 100 nM” value is 98%.
For `Cc1c(NC(=O)N2CC(OC(C)C)C2)cc(F)cc1-c1ccnc(Nc2ccc(N3CCN(CC4CCN(CC(=O)Nc5cccc(NC6CCC(=O)NC6=O)c5)CC4)CC3)cc2)n1` (stereo not drawn) [Example 106, N-(3-(2-((4-(4-((1-(2-((3-((2,6-dioxopiperidin-3-yl)amino)phenyl)amino)-2-oxoethyl)piperidin-4-yl)methyl)piperazin-1-yl)phenyl)amino)pyrimidin-4-yl)-5-fluoro-2-methylphenyl)-3-isopropoxyazetidine-1-carboxamide], in that order: 1%, 20% and 76%.
For `Cc1cc(-c2ccnc(Nc3ccc(N4CCN(CC5CN(c6ccc7c(n6)CN(C6CCC(=O)NC6=O)C7=O)C5)CC4)cc3)n2)ccc1CNC(=O)N1CC(OC(C)C)C1` (stereo not drawn) [Example 107, N-(4-(2-((4-(4-((1-(6-(2,6-dioxopiperidin-3-yl)-5-oxo-6,7-dihydro-5H-pyrrolo[3,4-b]pyridin-2-yl)azetidin-3-yl)methyl)piperazin-1-yl)phenyl)amino)pyrimidin-4-yl)-2-methylbenzyl)-3-isopropoxyazetidine-1-carboxamide], in that order: 63.5%, 95% and 98%.
Regarding `Cc1c(NC(=O)N2CC(OC(C)C)C2)cc(F)cc1-c1ccnc(Nc2ccc(N3CCN(CC4CN(c5ccc6c(n5)CN(C5CCC(=O)NC5=O)C6=O)C4)CC3)cc2)n1` (stereo not drawn) [Example 108, N-(3-(2-((4-(4-((1-(6-(2,6-dioxopiperidin-3-yl)-5-oxo-6,7-dihydro-5H-pyrrolo[3,4-b]pyridin-2-yl)azetidin-3-yl)methyl)piperazin-1-yl)phenyl)amino)pyrimidin-4-yl)-5-fluoro-2-methylphenyl)-3-isopropoxyazetidine-1-carboxamide], the “BTK degradation (%) 1 nM” value was found to be 21.5%, the “BTK degradation (%) 10 nM” value was found to be 73% and the “BTK degradation (%) 100 nM” value was 94.5%.
In the case of `Cc1cc(-c2ccnc(Nc3ccc(N4CCN(C5CCN(c6ccc7c(c6)C(=O)N(C6CCC(=O)NC6=O)C7=O)CC5)CC4)cc3)n2)ccc1CNC(=O)N1CC(OC(C)C)C1` (stereo not drawn) [Example 109, N-(4-(2-((4-(4-(1-(2-(2,6-dioxopiperidin-3-yl)-1,3-dioxoisoindolin-5-yl)piperidin-4-yl)piperazin-1-yl)phenyl)amino)pyrimidin-4-yl)-2-methylbenzyl)-3-isopropoxyazetidine-1-carboxamide], the “BTK degradation (%) 1 nM” value came to 41.5%, the “BTK degradation (%) 10 nM” value was 94.0% and the “BTK degradation (%) 100 nM” value is recorded as 99.5%.
Consider `Cc1cc(-c2ccnc(Nc3ccc(C4CCN(C5CCN(c6ccc7c(c6)C(=O)N(C6CCC(=O)NC6=O)C7=O)CC5)CC4)cc3)n2)ccc1CNC(=O)N1CC(OC(C)C)C1` (stereo not drawn) [Example 110, N-(4-(2-((4-(1′-(2-(2,6-dioxopiperidin-3-yl)-1,3-dioxoisoindolin-5-yl)-[1,4′-bipiperidin]-4-yl)phenyl)amino)pyrimidin-4-yl)-2-methylbenzyl)-3-isopropoxyazetidine-1-carboxamide], for which the “BTK degradation (%) 1 nM” value was found to be 28.0%, the “BTK degradation (%) 10 nM” value is 92.0% and the “BTK degradation (%) 100 nM” value is listed as 99.5%.
As to `Cc1cc(-c2ccnc(Nc3ccc(N4CCC(CN5CCN(c6ccc7c(c6)C(=O)N(C6CCC(=O)NC6=O)C7=O)CC5)CC4)cc3)n2)ccc1CNC(=O)N1CC(OC(C)C)C1` (stereo not drawn) [Example 111, N-(4-(2-((4-(4-((4-(2-(2,6-dioxopiperidin-3-yl)-1,3-dioxoisoindolin-5-yl)piperazin-1-yl)methyl)piperidin-1-yl)phenyl)amino)pyrimidin-4-yl)-2-methylbenzyl)-3-isopropoxyazetidine-1-carboxamide], the “BTK degradation (%) 1 nM” value is 44%, the “BTK degradation (%) 10 nM” value was determined as 93.5% and the “BTK degradation (%) 100 nM” value is reported as 99.5%.
